{"source": "patent US20090018111A1", "about": "“Novel Antimicrobial Medicament” (priority 2004, published 2009)", "experiment_in_all_cases": "Sensitivity test (agar dilution)", "key": {"P. mirabiris GN2425": {"tested_on": "P. mirabiris GN2425", "type": "cell-based, Proteus mirabilis", "conditions": "Proteus mirabilis, P. mirabiris GN2425", "procedure": "(§1) The antibacterial activities were tested against various 18 bacteria (27 standard strains) which are representative bacteria caused clinically infectious disease (Staphylococcus aureus 3 strains, Staphylococcus epidermidis 1 strain, Micrococcus luteus 1 strain, Streptococcus pyogenes 1 strain, Enterococcus faecalis 1 strain, Enterococcus faecium 1 strain, Bacillus subtilis 1 strain, Escherichia coli 3 strains, Klebsiella pneumoniae 1 strain, Proteus mirabilis 1 strain, Proteus vulgaris 2 strains, Pseudomonas aeruginosa 3 strains, Serratia marcescens 2 strains, Enterobacter aerogenes 1 strain, Stenotrophomonas maltophilia 1 strain, Enterobacter cloacae 1 strain, Citrobacter freundii 1 strain, Moraxella catarrhalis 2 strains).\n(§2) According to the standard method of Japan Chemotherapeutic Society (Chemotherapy, vol. […], p 76-79 (1981)) the test was carried out using the agar dilution method. After dissolving test samples in distilled water, agar medium containing the test samples was prepared in such a manner that the final concentration became twice serial dilution by pouring serially diluted combination drug solution or a single drug solution into agar medium. As agar medium was used Mueller Hinton Agar medium (MHA). Then, each strain was cultivated over night at 37° C. in an incubator and suspended in buffered saline solution with gelatin (BSG) in the concentration of about 10^6 CFU/ml. The suspension (about 5 μl) containing test strains was inoculated to the medium containing the test samples by Micro Planter.\n(§3) When the sample is subjected to sensitivity test, this mixed solution was diluted by twice serial dilution method.\n(§4) Furthermore, when the drug is solely used, each test sample was used as it is, and diluted by twice serial dilution method from the maximum concentration to the minimum concentration.\n(§5) FIC index based on MIC value was calculated. […] Namely, when FIC index calculated by the following formula is equal or less than 1, the enhanced effect of the combination drug in said ratio is considered as positive. When FIC index is over 1, the enhanced effect of the combination drug in said ratio is considered as negative.\n(§6) Formula of FIC index: FIC index=(MIC of Drug A in combination/MIC of Drug A alone)+(MIC of Drug B in combination/MIC of Drug B alone) N.C. in tables means being not calculated."}, "C. freundii GN346": {"tested_on": "C. freundii GN346", "type": "cell-based, Citrobacter freundii", "conditions": "Citrobacter freundii", "procedure": "as §1, §2, §3, §4, §5, §6"}, "[1]": {"tested_on": "S. aureus MS94088 (hetero-MRSA)", "type": "cell-based, Staphylococcus aureus", "conditions": "Staphylococcus aureus, MRSA", "procedure": "as §1, §2, §3, §4, §5, §6"}, "S. aureus 209P": {"tested_on": "S. aureus 209P", "type": "cell-based, Staphylococcus aureus", "conditions": "Staphylococcus aureus, 209P", "procedure": "as §1, §2, §3, §4, §5, §6"}, "[2]": {"conditions": "Concomitant (IPM:SM = 1:1), read-out: MIC"}, "[3]": {"conditions": "Concomitant (MEPM:SM = 1:1), read-out: MIC"}, "[4]": {"conditions": "Concomitant (MEPM:SM = 1:2), read-out: MIC"}, "[5]": {"conditions": "Concomitant (MEPM:SM = 1:4), read-out: MIC"}}, "note": "Read-outs that look alike come from different tables or passages of the source."}
{"smiles": "C[C@H]1C=C(c2csc(SC3=C(C(=O)O)N4C(=O)[C@H]([C@@H](C)O)[C@H]4[C@H]3C)n2)CN1", "note": "[SM, (4R,5S,6S)-6-[(1R)-1-Hydroxyethyl]-4-methyl-3-({4-[(5S)-5-methyl-2,5-dihydro-1H-pyrrol-3-yl]-1,3-thiazol-2-yl}sulfanyl)-7-oxo-1-azabicyclo[3.2.0]hept-2-ene-2-carboxylic acid]", "values": [{"measurement": "MIC", "setting": "P. mirabiris GN2425; GN2425, read-out: MIC concomitant, Concomitant (AZT:SM = 1:1)", "value": 0.004, "unit": "µg/mL"}, {"measurement": "MIC", "setting": "P. mirabiris GN2425; GN2425, read-out: MIC concomitant, Concomitant (BIPM:SM = 1:1)", "value": 0.125, "unit": "µg/mL"}, {"measurement": "MIC", "setting": "P. mirabiris GN2425; GN2425, read-out: MIC concomitant, Concomitant (CAZ:SM = 1:1)", "value": 0.031, "unit": "µg/mL"}, {"measurement": "MIC", "setting": "P. mirabiris GN2425; GN2425, read-out: MIC concomitant, Concomitant (CPFX:SM = 1:1)", "value": 0.031, "unit": "µg/mL"}, {"measurement": "MIC", "setting": "P. mirabiris GN2425; GN2425, read-out: MIC concomitant, Concomitant (DRPM:SM = 1:1)", "value": 0.063, "unit": "µg/mL"}, {"measurement": "MIC", "setting": "P. mirabiris GN2425; GN2425, read-out: MIC concomitant, Concomitant (PAPM:SM = 1:1)", "value": 0.125, "unit": "µg/mL"}, {"measurement": "MIC", "setting": "P. mirabiris GN2425; GN2425, read-out: MIC concomitant, Concomitant (PIPC:SM = 1:1)", "value": 0.063, "unit": "µg/mL"}, {"measurement": "MIC", "setting": "C. freundii GN346; GN346, Concomitant (AZT:SM = 1:1), C. freundii GN346, read-out: MIC concomitant", "value": 8, "unit": "µg/mL"}, {"measurement": "MIC", "setting": "C. freundii GN346; GN346, Concomitant (BIPM:SM = 1:1), C. freundii GN346, read-out: MIC concomitant", "value": 0.125, "unit": "µg/mL"}, {"measurement": "MIC", "setting": "C. freundii GN346; GN346, Concomitant (CAZ:SM = 1:1), C. freundii GN346, read-out: MIC concomitant", "value": 8, "unit": "µg/mL"}, {"measurement": "MIC", "setting": "C. freundii GN346; GN346, Concomitant (CPFX:SM = 1:1), C. freundii GN346, read-out: MIC concomitant", "value": 0.008, "unit": "µg/mL"}, {"measurement": "MIC", "setting": "C. freundii GN346; GN346, Concomitant (DRPM:SM = 1:1), C. freundii GN346, read-out: MIC concomitant", "value": 0.063, "unit": "µg/mL"}, {"measurement": "MIC", "setting": "C. freundii GN346; GN346, Concomitant (IPM:SM = 1:1), read-out: MIC", "value": 0.25, "unit": "µg/mL"}, {"measurement": "MIC", "setting": "C. freundii GN346; GN346, Concomitant (MEPM:SM = 1:1), read-out: MIC", "value": 0.031, "unit": "µg/mL"}, {"measurement": "MIC", "setting": "C. freundii GN346; GN346, Concomitant (MEPM:SM = 1:2), read-out: MIC", "value": 0.063, "unit": "µg/mL"}, {"measurement": "MIC", "setting": "C. freundii GN346; GN346, Concomitant (MEPM:SM = 1:4), read-out: MIC", "value": 0.125, "unit": "µg/mL"}, {"measurement": "MIC", "setting": "C. freundii GN346; GN346, Concomitant (PAPM:SM = 1:1), C. freundii GN346, read-out: MIC concomitant", "value": 0.25, "unit": "µg/mL"}, {"measurement": "MIC", "setting": "C. freundii GN346; GN346, Concomitant (PIPC:SM = 1:1), C. freundii GN346, read-out: MIC concomitant", "value": 8, "unit": "µg/mL"}, {"measurement": "MIC", "setting": "C. freundii GN346; GN346, Concomitant drug (MEPM:SM = 2:1), read-out: MIC", "value": 0.016, "unit": "µg/mL"}, {"measurement": "MIC", "setting": "C. freundii GN346; GN346, alone, read-out: MIC", "value": 8, "unit": "µg/mL"}, {"measurement": "MIC", "setting": "C. freundii GN346; GN346, drug alone, C. freundii GN346, read-out: MIC alone", "value": 8, "unit": "µg/mL"}, {"measurement": "MIC", "setting": "[1]; Concomitant (AZT:SM = 1:1), S. aureus MS94088 (hetero-MRSA), read-out: MIC concomitant", "value": 0.25, "unit": "µg/mL"}, {"measurement": "MIC", "setting": "[1]; Concomitant (BIPM:SM = 1:1), S. aureus MS94088 (hetero-MRSA), read-out: MIC concomitant", "value": 0.25, "unit": "µg/mL"}, {"measurement": "MIC", "setting": "[1]; Concomitant (CAZ:SM = 1:1), S. aureus MS94088 (hetero-MRSA), read-out: MIC concomitant", "value": 0.25, "unit": "µg/mL"}, {"measurement": "MIC", "setting": "[1]; Concomitant (CPFX:SM = 1:1), S. aureus MS94088 (hetero-MRSA), read-out: MIC concomitant", "value": 0.125, "unit": "µg/mL"}, {"measurement": "MIC", "setting": "[1]; Concomitant (DRPM:SM = 1:1), S. aureus MS94088 (hetero-MRSA), read-out: MIC concomitant", "value": 0.25, "unit": "µg/mL"}, {"measurement": "MIC", "setting": "[1]; [2]", "value": 0.25, "unit": "µg/mL"}, {"measurement": "MIC", "setting": "[1]; [3]", "value": 0.25, "unit": "µg/mL"}, {"measurement": "MIC", "setting": "[1]; [4]", "value": 0.25, "unit": "µg/mL"}, {"measurement": "MIC", "setting": "[1]; [5]", "value": 0.25, "unit": "µg/mL"}, {"measurement": "MIC", "setting": "[1]; Concomitant (PAPM:SM = 1:1), S. aureus MS94088 (hetero-MRSA), read-out: MIC concomitant", "value": 0.25, "unit": "µg/mL"}, {"measurement": "MIC", "setting": "[1]; Concomitant (PIPC:SM = 1:1), S. aureus MS94088 (hetero-MRSA), read-out: MIC concomitant", "value": 0.125, "unit": "µg/mL"}, {"measurement": "MIC", "setting": "[1]; Concomitant drug (MEPM:SM = 2:1), read-out: MIC", "value": 0.25, "unit": "µg/mL"}, {"measurement": "MIC", "setting": "[1]; alone, read-out: MIC", "value": 0.25, "unit": "µg/mL"}, {"measurement": "MIC", "setting": "[1]; drug alone, S. aureus MS94088 (hetero-MRSA), read-out: MIC alone", "value": 0.25, "unit": "µg/mL"}, {"measurement": "MIC", "setting": "S. aureus 209P; Concomitant (AZT:SM = 1:1), S. aureus 209P, read-out: MIC concomitant", "value": 0.008, "unit": "µg/mL"}, {"measurement": "MIC", "setting": "S. aureus 209P; Concomitant (BIPM:SM = 1:1), S. aureus 209P, read-out: MIC concomitant", "value": 0.008, "unit": "µg/mL"}, {"measurement": "MIC", "setting": "S. aureus 209P; Concomitant (CAZ:SM = 1:1), S. aureus 209P, read-out: MIC concomitant", "value": 0.004, "unit": "µg/mL"}, {"measurement": "MIC", "setting": "S. aureus 209P; Concomitant (CPFX:SM = 1:1), S. aureus 209P, read-out: MIC concomitant", "value": 0.008, "unit": "µg/mL"}, {"measurement": "MIC", "setting": "S. aureus 209P; Concomitant (DRPM:SM = 1:1), S. aureus 209P, read-out: MIC concomitant", "value": 0.004, "unit": "µg/mL"}, {"measurement": "MIC", "setting": "S. aureus 209P; [2]", "value": 0.004, "unit": "µg/mL"}, {"measurement": "MIC", "setting": "S. aureus 209P; [3]", "value": "≤ 0.016", "unit": "µg/mL"}, {"measurement": "MIC", "setting": "S. aureus 209P; [4]", "value": "≤ 0.031", "unit": "µg/mL"}, {"measurement": "MIC", "setting": "S. aureus 209P; [5]", "value": "≤ 0.063", "unit": "µg/mL"}, {"measurement": "MIC", "setting": "S. aureus 209P; Concomitant (PAPM:SM = 1:1), S. aureus 209P, read-out: MIC concomitant", "value": 0.004, "unit": "µg/mL"}]}
